The source of these data is PubChem BioAssay (NCI).

Among the test systems are HCT-116 colon; CCRF-CEM leukemia; MCF7 breast; UACC-257 melanoma; M14 melanoma; K-562 leukemia; BT-549 breast; A498 renal; HOP-92 NSCLC; HOP-62 NSCLC.
Assay in all cases: NCI-60 cell line screen, 48 h

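Briefly, cells in 96-well plates were exposed to five compound concentrations for 48 h, and endpoints were estimated by linear interpolation. The concentration for 50% growth inhibition is given as GI50. TGI denotes the concentration required for complete inhibition of growth.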 Bounds are passed on as bounds.

`Cc1ccc(S(=O)(=O)Oc2nc3ccccc3nc2OS(=O)(=O)c2ccc(C)cc2)cc1`: the TGI in the test with HCT-116 colon, in the test with CCRF-CEM leukemia, in the test on MCF7 breast, in the test with UACC-257 melanoma, with M14 melanoma and in the test on K-562 leukemia was above 100 µM each time. Moreover, the TGI with BT-549 breast and in the test on A498 renal was above 100 µM each time.

In the case of `NCCCC[C@H](N)C(=O)Nc1ccc(-c2nc3ccccc3s2)cc1`, the TGI in the test with HCT-116 colon was 33 µM; in the test on CCRF-CEM leukemia it was 23.6 µM; in the test on UACC-257 melanoma, above 100 µM; in the test with M14 melanoma, 25.1 µM; with HOP-92 NSCLC, above 100 µM; in the test with HOP-62 NSCLC, 62 µM. In addition, the TGI amounted to 36.3 µM in the test with K-562 leukemia, 84.9 µM in the test with BT-549 breast and 72.9 µM in the test on A498 renal.

In the case of `CC(=O)Nc1ccc2c3c(cc(O)c2c1)N(C(=O)CCCCCCC(=O)N1CC(CCl)c2c1cc(O)c1cc(NC(C)=O)ccc21)CC3CCl` (stereo not drawn), the TGI with MCF7 breast is 0.0472 µM; with M14 melanoma it was 0.0177 µM; in the test on K-562 leukemia it was above 100 µM; with BT-549 breast, 0.0914 µM; with A498 renal it was below 0.01 µM.

Take `CN1C(=O)C2(C=CC(O)CC2)c2ccccc21` (stereo not drawn): the TGI in the test with HCT-116 colon, in the test with CCRF-CEM leukemia, in the test with MCF7 breast, in the test with UACC-257 melanoma, in the test with M14 melanoma and in the test on HOP-92 NSCLC was above 100 µM in each case. For the same molecule, the TGI in the test with HOP-62 NSCLC, with K-562 leukemia and in the test on A498 renal was above 100 µM throughout.

For `CC1SCc2nc3ccccc3n21` (stereo not drawn), the TGI in the test on HCT-116 colon, in the test on CCRF-CEM leukemia, in the test on MCF7 breast, with UACC-257 melanoma, in the test with M14 melanoma and with HOP-92 NSCLC was above 100 µM each time. For the same molecule, the TGI with HOP-62 NSCLC, in the test with K-562 leukemia and with A498 renal was above 100 µM each time.

As for `O=C(Nc1ccc(-n2ccc3c(NC(=O)c4ccccc4)ncnc32)cc1)Nc1ccc(Cl)c(Cl)c1`, the GI50 in the test with HCT-116 colon is 1.66 µM; in the test with CCRF-CEM leukemia it was 0.987 µM; in the test on MCF7 breast it was 1.9 µM; in the test on UACC-257 melanoma, 3.57 µM; in the test with M14 melanoma it was 2.42 µM; with HOP-92 NSCLC, 1.12 µM. Moreover, the GI50 in the test with HOP-62 NSCLC was 1.85 µM; in the test on K-562 leukemia, 1.73 µM; with A498 renal, 7.05 µM. Further, the TGI in the test with HCT-116 colon came to 5.06 µM; with CCRF-CEM leukemia, 2.83 µM; in the test on MCF7 breast, 8.25 µM; in the test on UACC-257 melanoma, 10.8 µM; with M14 melanoma it was 8.11 µM; in the test with HOP-92 NSCLC, 6.94 µM. For the same molecule, the TGI in the test on HOP-62 NSCLC came out at 7.44 µM; in the test with K-562 leukemia, 6.75 µM; in the test with A498 renal, 14.7 µM.

On to `O=[N+]([O-])C(=C(N1CCOCC1)N1CCOCC1)/C(Cl)=C(\Cl)Br`, for which the TGI in the test on HCT-116 colon was 30.8 µM; in the test on CCRF-CEM leukemia, 9.49 µM; in the test on UACC-257 melanoma, 31.8 µM; with M14 melanoma it was 28.3 µM; with HOP-92 NSCLC, 31 µM; in the test on HOP-62 NSCLC, above 100 µM. In addition, the TGI was 60.2 µM in the test on K-562 leukemia, 28.8 µM in the test with BT-549 breast and above 100 µM with A498 renal.

Consider `[N-]=[N+]=NC(c1cn(C2CC(O)C(CO)O2)c(=O)[nH]c1=O)C(Cl)I` (stereo not drawn), for which the TGI in the test with HCT-116 colon, with MCF7 breast, in the test on UACC-257 melanoma, in the test with M14 melanoma, in the test with HOP-62 NSCLC and in the test with BT-549 breast was above 100 µM each time. In the test on A498 renal, this molecule showed a TGI above 100 µM.

`COc1cc(C2c3cc4c(cc3OC(NNS(=O)(=O)c3ccc(C)cc3)C2C)OCO4)cc(OC)c1O` (stereo not drawn): the TGI in the test on HCT-116 colon is above 100 µM; with CCRF-CEM leukemia, above 100 µM; in the test with MCF7 breast, 36.1 µM; in the test with UACC-257 melanoma, 38.4 µM; in the test with M14 melanoma, 58.2 µM; in the test on HOP-92 NSCLC it was 54.8 µM. Further, the TGI with HOP-62 NSCLC was determined as 39.4 µM; with K-562 leukemia, 45.7 µM; in the test with A498 renal, 25.2 µM.

Consider `S=C1CCSc2c(ccc3ccccc23)N1`, for which the TGI in the test with HCT-116 colon, in the test with CCRF-CEM leukemia, in the test on MCF7 breast, in the test with UACC-257 melanoma, in the test with M14 melanoma and with HOP-62 NSCLC was above 100 µM each time. Besides, the TGI in the test on K-562 leukemia and with BT-549 breast was above 100 µM throughout.

On to `C/C(CC(O)(/C=N/O)c1ccccc1)=N/O` (stereo not drawn), for which the TGI in the test with HCT-116 colon, in the test on CCRF-CEM leukemia, in the test with MCF7 breast, with UACC-257 melanoma, in the test on M14 melanoma and in the test with HOP-62 NSCLC was above 100 µM throughout. In addition, the TGI with K-562 leukemia and in the test with BT-549 breast was above 100 µM throughout.

On to `COC1CC(COCc2ccccc2)CC(OC)O1` (stereo not drawn), for which the TGI with HCT-116 colon was above 100 µM; in the test with CCRF-CEM leukemia, 0.44 µM; with MCF7 breast it was above 100 µM; with UACC-257 melanoma, above 100 µM; with M14 melanoma it was above 100 µM; in the test with HOP-92 NSCLC, above 100 µM. In addition, the TGI in the test on HOP-62 NSCLC, in the test on K-562 leukemia and in the test with A498 renal was above 100 µM each time.
